ChEMBL document CHEMBL4483862, “Open-source discovery of chemical leads for next-generation chemoprotective antimalarials” (2018)

System: Plasmodium berghei
Test: Luciferase/luciferin-expressing antifolate-resistant parasites were used to infect a culture of HepG2 cells that were pre-incubated with compounds. Infected hepatocytes emit light due to the luciferase reaction. Assay results are presented as the percent inhibition of light emission compared to control. […]
Assay type: functional
Conditions: sporozoite; for IC50: read-out: LUCIFERASE INFECTION ASSAY - IC50; for IC90: read-out: LUCIFERASE INFECTION ASSAY - IC90

SMILES	IC50	IC90
CCOc1ccc(S(=O)(=O)Nc2cccc(C(=O)N3CCN(c4ccccn4)CC3)c2)cc1	> 10 µM	> 10 µM
N#Cc1cccnc1N1CCN(C(=O)c2cc(-c3ccccc3)nn2-c2ccccc2)CC1	> 10 µM	> 10 µM
CC(=O)NC(Cc1c[nH]c2ccccc12)C(=O)NNC(=O)c1ccccc1O (stereo unspecified)	> 10 µM	> 10 µM
CC(C)N(Cc1nc(=O)c2ccccc2[nH]1)C(=O)COc1ccccc1Cc1ccccc1	> 10 µM	> 10 µM
O=C(CN1CCN(C(=O)C2COc3ccccc3O2)CC1)Nc1ccccc1-c1ccccc1 (stereo unspecified)	> 10 µM	> 10 µM
Fc1ccc(-c2csc3ncnc(Sc4nnc(NC5CC5)s4)c23)cc1	> 10 µM	> 10 µM
O=C(c1ccc(S(=O)(=O)NCc2ccco2)cc1)N1CCc2sccc2C1c1cccs1 (stereo unspecified)	> 10 µM	> 10 µM
Cc1cc(/C=C2\SC(N3CCOCC3)=NC2=O)c(C)n1-c1cccc(C(F)(F)F)c1	> 10 µM	> 10 µM
COc1cc2c(cc1OC)C(c1ccccc1)N(C(=O)/C=C/c1ccsc1)CC2 (stereo unspecified)	> 10 µM	> 10 µM
COCCN(Cc1nnc(-c2cccs2)o1)C(=O)c1cc(C2CC2)nc2c1cnn2C(C)C	> 10 µM	> 10 µM
CCOC(=O)c1c(CN2C(=O)NC3(CCCc4sccc43)C2=O)nc2ccccc2c1C (stereo unspecified)	> 10 µM	> 10 µM
Cc1ccc(-n2c(SCC(=O)c3ccc4c(c3)OCO4)nnc2N2CCCC2)cc1	> 10 µM	> 10 µM
O=C(c1nn(-c2ccccc2)c(=O)c2ccccc12)N1CCN(C2CCS(=O)(=O)C2)CC1 (stereo unspecified)	> 10 µM	> 10 µM
O=C(CSc1ncnc2ccccc12)NN1C(=O)NC(c2ccccc2)(c2ccccc2)C1=O	> 10 µM	> 10 µM
Cc1noc(C)c1COc1ccc(C(=O)NNc2c(Cl)cc(Cl)cc2Cl)cc1	> 10 µM	> 10 µM
CCn1c(=S)[nH]c2cc(C(=O)N3CCN(C(c4ccc(F)cc4)c4ccc(F)cc4)CC3)ccc21	> 10 µM	> 10 µM
Cc1nc(SCC(=O)N2c3ccccc3Sc3ccccc32)n(CC(C)C)c1C	> 10 µM	> 10 µM
CCN(CC)C(=O)COC(=O)c1ccc2c(c1)C(=O)N(CCC(C)C)C2=O	> 10 µM	> 10 µM
CC(=O)N1CCN(S(=O)(=O)c2cccc(C(=O)OCC(=O)c3ccc4c(c3)-c3ccccc3C4)c2)CC1	> 10 µM	> 10 µM
COc1ccc(NS(=O)(=O)c2ccc3oc(SC(C)C(=O)N4CCNC4=O)nc3c2)cc1 (stereo unspecified)	> 10 µM	> 10 µM
CCOCCCn1c(SCC(=O)Nc2scc(C3CC3)c2C(=O)OCC)nnc1-c1ccc(Cl)cc1	> 10 µM	> 10 µM
CCCCCn1nc(C(=O)N2CCN(Cc3nc4ccccc4s3)CC2)c2ccccc2c1=O	> 10 µM	> 10 µM
Cc1nc(-c2ccc(CCNC(=O)CN3C(=O)NC(C)(c4ccc5ccccc5c4)C3=O)cc2)cs1 (stereo unspecified)	> 10 µM	> 10 µM
CCCC(=O)Nc1ccc(-c2csc(NC(=O)c3cc(C)oc3C)n2)cc1	> 10 µM	> 10 µM
Cc1ccc(-c2nnc(SCC(=O)Nc3ccc(S(=O)(=O)N4CCCC4)cc3)[nH]2)cc1	> 10 µM	> 10 µM
O=C(OCC(=O)N1CCN(c2ccccc2)CC1)c1cccnc1Nc1cccc(C(F)(F)F)c1	> 10 µM	> 10 µM

SMILES	IC50	IC90
Cc1nc2ccccc2c(=O)n1-c1ccc(C(=O)NCCc2ccc3c(c2)OCCO3)cc1	> 10 µM	> 10 µM
CN(C)c1ccc(S(=O)(=O)N2CCCCC2)cc1NC(=S)NCc1ccc2c(c1)OCO2	> 10 µM	> 10 µM
O=c1[nH]nc(SCc2ccc([N+](=O)[O-])cc2)n1CC1CCCO1 (stereo unspecified)	> 10 µM	> 10 µM
COCCn1c(SC(C)C(=O)c2ccc(Br)cc2)nnc1-c1cccc(C)c1 (stereo unspecified)	> 10 µM	> 10 µM
Cc1cc(/C=C(\C#N)c2nc3ccccc3n2C)c(C)n1-c1ccc(Cl)c(C(F)(F)F)c1	> 10 µM	> 10 µM
COc1ccc2c(COC(=O)c3[nH]c(C)c(C(C)=O)c3C)cc(=O)oc2c1	> 10 µM	> 10 µM
COc1cc(C(=O)Nc2ccc(-c3cn4ccsc4n3)cc2)ccc1OCC(=O)N1CCOCC1	> 10 µM	> 10 µM
O=C(CN1CCN(Cc2nc3ccccc3s2)CC1)NN1C(=O)NC2(CCCCC2)C1=O	> 10 µM	> 10 µM
CCc1ccc(-c2csc(NC(=O)CCc3c(C)nc4nc(SC)nn4c3C)n2)cc1	> 10 µM	> 10 µM
Cc1cc(C)c2c(N)c(C(=O)NNC(=O)COc3ccc4c5c(c(=O)oc4c3)CCC5)sc2n1	> 10 µM	> 10 µM
CNc1snc(C)c1C(=O)OCc1ccc([N+](=O)[O-])cc1	> 10 µM	> 10 µM
O=C(Cn1cnc2cc(N3CCOCC3)c([N+](=O)[O-])cc2c1=O)c1ccc(C2CCCCC2)cc1	> 10 µM	> 10 µM
O=C(CSc1nnc(N2CCCC2)n1-c1ccccc1Cl)N1CCC(c2ccccc2)=N1	> 10 µM	> 10 µM
CC(=O)NCCc1ccc(C(=O)COC(=O)c2cc(C(C)C)cc(C(C)C)c2O)s1	> 10 µM	> 10 µM
O=S(=O)(Cc1ccccc1)N1CCN(c2ncnc3sc(-c4ccccc4)cc23)CC1	> 10 µM	> 10 µM
COc1ccc(OC)c2c1CN(c1cnn(-c3nc4ccccc4[nH]3)c(=O)c1Cl)CC2O (stereo unspecified)	> 10 µM	> 10 µM
CCn1c(C)nc2cc(C(=O)NNC(=O)/C=C/c3cccc(C(F)(F)F)c3)ccc21	> 10 µM	> 10 µM
COc1cc(C(=O)NC(c2ccccc2)c2ccc(C)cc2)ccc1OCC(=O)N1CCOCC1 (stereo unspecified)	> 10 µM	> 10 µM
COc1cc(OC)c2c(-c3ccccc3)cc(SCC(=O)N(C)C3CCS(=O)(=O)C3)nc2c1 (stereo unspecified)	> 10 µM	> 10 µM
COc1cc(OC)c(N2CC(C(=O)NC(C)c3ccc(F)c(F)c3)CC2=O)cc1Cl (stereo unspecified)	> 10 µM	> 10 µM
COc1ccccc1-n1cnnc1SCC(=O)NC(C)c1ccc(CC(C)C)cc1 (stereo unspecified)	> 10 µM	> 10 µM
CC(C(=O)Nc1cccc(C#N)c1)N1CCN(c2ncccn2)CC1 (stereo unspecified)	> 10 µM	> 10 µM
O=C(CSc1ccc(S(=O)(=O)N2CCOCC2)cn1)NC(c1ccccc1)c1cccs1 (stereo unspecified)	> 10 µM	> 10 µM
COc1cc(C(=O)OC(C)C(=O)Nc2sccc2C(N)=O)ccc1C (stereo unspecified)	> 10 µM	> 10 µM
CCOc1ccccc1NC(=O)C(c1ccccc1)N1CCC(n2c(=O)[nH]c3ccccc32)CC1 (stereo unspecified)	5.29 µM	> 10 µM
CCCCn1nnnc1CSc1nnc(-c2ccccc2F)n1Cc1ccccc1	> 10 µM	> 10 µM

SMILES	IC50	IC90
NC(=O)c1ccsc1NC(=O)COC(=O)c1ccc2c(c1Cl)C(=O)c1ccccc1C2=O	> 10 µM	> 10 µM
O=C(C1CN(C(=O)CCCc2c[nH]c3ccccc23)c2ccccc2O1)N1CCCCC1 (stereo unspecified)	> 10 µM	> 10 µM
CSCCC(NCc1cc(C)n(-c2ccnn2C(C)C)c1C)c1nc2ccccc2[nH]1 (stereo unspecified)	> 10 µM	> 10 µM
Cn1nc(CC(=O)N2CC(C(=O)N3CCCCC3)Oc3ccccc32)c2ccccc2c1=O (stereo unspecified)	> 10 µM	> 10 µM
CC(CCc1ccccc1)NC(=O)CN1CCN(C/C=C/c2ccccc2)CC1 (stereo unspecified)	> 10 µM	> 10 µM
Cc1cc(C(C)(C)C)cc(C)c1COC(=O)/C(=C/c1ccccc1)n1nnnc1C	> 10 µM	> 10 µM
Cc1ccc(Cn2nc(C)c3cc(C(=O)N4CCN(c5ncccn5)CC4)sc32)cc1	> 10 µM	> 10 µM
CN1CCc2nc(NC(=O)C3CCN(c4ncc(C(F)(F)F)cc4Cl)CC3)sc2C1	> 10 µM	> 10 µM
O=C(COC(=O)c1cc(-c2ccc(OC(F)F)cc2)nc2ccccc12)Nc1nnc(-c2ccccc2)o1	> 10 µM	> 10 µM
CCn1c(SCc2csc(N(C(C)=O)c3c(C)cc(C)cc3Cl)n2)nnc1C1CC1	> 10 µM	> 10 µM
COc1ccc2cc(C(C)C(=O)N3CCN(S(=O)(=O)/C=C/c4ccccc4)CC3)ccc2c1 (stereo unspecified)	> 10 µM	> 10 µM
Cc1cc(C(=O)CSc2nnc3n2CCCCC3)c(C)n1Cc1ccc2c(c1)OCO2	> 10 µM	> 10 µM
CN(Cc1nc2ccccc2s1)C(=O)CSc1nnc(N2CCCCC2)n1-c1ccccc1	> 10 µM	> 10 µM
CCN(CC)S(=O)(=O)c1ccc(C)c(NC(=O)CN(Cc2c(F)cccc2Cl)C2CC2)c1	> 10 µM	> 10 µM
O=C(NC(c1ccc(F)cc1)c1cccs1)c1cc2ccccc2o1 (stereo unspecified)	> 10 µM	> 10 µM
CCOC(=O)/C=C1\SCC(=O)N1CCOC(=O)c1ccccc1	> 10 µM	> 10 µM
CC(=O)N/C(=C\c1ccccc1)C(=O)OCc1ncc(-c2ccccc2)o1	> 10 µM	> 10 µM
O=C(CN1CCN(C(=O)c2ccccc2COc2ccccc2)CC1)Nc1ccccc1Cl	> 10 µM	> 10 µM
COc1cc(/C=c2\s/c(=C(/C#N)C(=O)Nc3cccc(S(=O)(=O)N4CCCCC4)c3)n(CCc3ccccc3)c2=O)ccc1OC(F)F	> 10 µM	> 10 µM
CC1C(=O)Nc2ccc(-c3csc(-c4ccc(NC(=O)c5ccco5)cc4)n3)cc21 (stereo unspecified)	> 10 µM	> 10 µM
CCCN(CC(=O)N1N=C(c2ccc(C)cc2)CC1c1ccco1)Cc1nnc(-c2ccco2)o1 (stereo unspecified)	> 10 µM	> 10 µM
Nc1c(C(=O)CN2CCN(C(c3ccc(F)cc3)c3ccc(F)cc3)CC2)c(=O)[nH]c(=O)n1Cc1ccccc1	> 10 µM	> 10 µM
COc1ccc(-c2csc3ncnc(NC(C)c4ccc(Cl)cc4Cl)c23)cc1 (stereo unspecified)	> 10 µM	> 10 µM
CCCCN(C(=O)CSc1nnc(-c2ccc(OC)cc2)n1C(C)C)c1c(N)n(CCCC)c(=O)[nH]c1=O	> 10 µM	> 10 µM
COc1ccc2cc(C(=O)NNC(=O)c3ccccn3)c(C)nc2c1	8.4 µM	> 10 µM
O=C(NNC(=O)C12CC3CC(CC(C3)C1)C2)c1nn(-c2ccccc2)cc1O	3.26 µM	3.89 µM
